Test results published in patent US20220162191A1, “SMALL MOLECULE MODULATORS OF IL-17” (LEO PHARMA A/S, priority 2019, published 2022).

molecular target: T1, human IL-17AA (Homo sapiens, UniProt Q16552); assay: IL-8 release assay in human epithelial keratinocytes adult (HEKa); format: cell-based; conditions: 3 ng/ml human IL-17AA + 10 ng/ml human TNFalpha, 68-72 h, IL-8 by HTRF, read-out: Rel EC50 L-8 release assay
T1 construct: host or cells: HEK (human embryonic kidney) cells
T1 sequence (Q16552 24-155) 1: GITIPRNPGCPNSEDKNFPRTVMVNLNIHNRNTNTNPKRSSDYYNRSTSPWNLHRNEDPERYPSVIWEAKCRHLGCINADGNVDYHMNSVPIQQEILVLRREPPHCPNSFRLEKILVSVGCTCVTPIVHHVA
T1 sequence (Q16552 24-155) 2: T1 sequence (Q16552 24-155) 1
Outline: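 IL-8 secretion, quantified by HTRF (665/620 nm) as percent of controls, served as the readout after 68–72 h culture of HEKa cells with compound plus IL-17AA (3 ng/ml final) and TNF-alpha (10 ng/ml final). Four-parameter logistic curves gave relative IC50 and Emax.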

Compound | EC50 [µM]
Cc1nccn1-c1ccc(NC(=O)[C@H](Cc2cc(-c3ccc(=O)n(C(C)C)c3)ccc2Cl)NC(=O)C2(F)CC2)cc1 [Example 114, N-[(1S)-1-[[2-chloro-5-(1-isopropyl-6-oxo-3-pyridyl)phenyl]methyl]-2-[4-(2-methylimidazol-1-yl)anilino]-2-oxo-ethyl]-1-fluoro-cyclopropanecarboxamide] | 0.1 to 1
CC(C)n1cc(-c2ccc(Cl)c(CC(NC(=O)OC(C)(C)C)C(=O)Nc3ccc(-c4cncn4C)c(Cl)c3)c2)ccc1=O (stereo not drawn) [Example 101, tert-butyl N-[1-[[2-chloro-5-(1-isopropyl-6-oxo-3-pyridyl)phenyl]methyl]-2-[3-chloro-4-(3-methylimidazol-4-yl)anilino]-2-oxo-ethyl]carbamate] | > 1
Cn1cnnc1-c1ccc(NC(=O)C(Cc2cc(-c3cccc(CC4CC4)c3)ccc2Cl)NC(=O)c2ccnn2C)cc1 (stereo not drawn) [Example 169, N-[1-[[2-chloro-5-[3-(cyclopropylmethyl)phenyl]phenyl]methyl]-2-[4-(4-methyl-1,2,4-triazol-3-yl)anilino]-2-oxo-ethyl]-2-methyl-pyrazole-3-carboxamide] | 0.1 to 1
CC(C)n1cc(-c2ccc(Cl)c(C[C@H](NC(=O)CC3CC3)C(=O)Nc3ccc(-c4nncn4C)cc3)c2)ccc1=O [Example 116, (2S)-3-[2-chloro-5-(1-isopropyl-6-oxo-3-pyridyl)phenyl]-2-[(2-cyclopropylacetyl)amino]-N-[4-(4-methyl-1,2,4-triazol-3-yl)phenyl]propanamide] | > 1
CC(C)n1cc(-c2cccc(C(c3ccccc3)C(NC(=O)OC3CC3)C(=O)Nc3ccc(-c4cncn4C)cc3)c2)ccc1=O (single isomer, unassigned; diastereomer 3) [Example 240, cyclopropyl N-[1-[[3-(1-isopropyl-6-oxo-3-pyridyl)phenyl]-phenyl-methyl]-2-[4-(3-methylimidazol-4-yl)anilino]-2-oxo-ethyl]carbamate (Diastereomer 3)] | > 1
Cn1cnnc1-c1ccc(NC(=O)C(Cc2cc(-c3cccc(OC(F)F)c3)ccc2Cl)NC(=O)c2ccnn2C)cc1 (stereo not drawn) [Example 112, N-[1-[[2-chloro-5-[3-(difluoromethoxy)phenyl]phenyl]methyl]-2-[4-(4-methyl-1,2,4-triazol-3-yl)anilino]-2-oxo-ethyl]-2-methyl-pyrazole-3-carboxamide] | 0.1 to 1
CC(C)n1cc(-c2ccc(Cl)c(CC(NC(=O)c3ccnn3C)C(=O)Nc3ccc(-c4nncn4C)cc3)c2)cc(C(F)(F)F)c1=O (stereo not drawn) [Example 163, N-[1-[[2-chloro-5-[1-isopropyl-6-oxo-5-(trifluoromethyl)-3-pyridyl]phenyl]methyl]-2-[4-(4-methyl-1,2,4-triazol-3-yl)anilino]-2-oxo-ethyl]-2-methyl-pyrazole-3-carboxamide] | > 1
Cc1nocc1C(=O)NC(Cc1cc(-c2cccc(C(=O)N(C)C3CC3)c2)ccc1Cl)C(=O)Nc1ccc(-c2nncn2C)cc1 (stereo not drawn) [Example 107, N-[1-[[2-chloro-5-[3-[cyclopropyl(methyl)carbamoyl]phenyl]phenyl]methyl]-2-[4-(4-methyl-1,2,4-triazol-3-yl)anilino]-2-oxo-ethyl]-3-methyl-isoxazole-4-carboxamide] | 0.1 to 1
Cn1cncc1-c1ccc(NC(=O)C(Cc2cc(-c3ccnc(OCC4CC4)c3)ccc2Cl)NC(=O)c2ccnn2C)cc1 (stereo not drawn) [Example 166, N-[1-[[2-chloro-5-[2-(cyclopropylmethoxy)-4-pyridyl]phenyl]methyl]-2-[4-(3-methylimidazol-4-yl)anilino]-2-oxo-ethyl]-2-methyl-pyrazole-3-carboxamide] | 0.1 to 1
CC(C)n1cc(-c2ccc(Cl)c(C[C@H](NC(=O)C3CCC3)C(=O)Nc3ccc(-c4nncn4C)cc3)c2)ccc1=O [Example 293, N-[(1S)-1-[[2-chloro-5-(1-isopropyl-6-oxo-3-pyridyl)phenyl]methyl]-2-[4-(4-methyl-1,2,4-triazol-3-yl)anilino]-2-oxo-ethyl]cyclobutanecarboxamide] | > 1
Cn1cncc1-c1ccc(NC(=O)[C@H](Cc2cc(-c3cccc([C@H]4COCCN4)c3)ccc2Cl)NC(=O)c2ccnn2C)cc1 [Example 215, N-[(1S)-1-[[2-chloro-5-[3-[(3S)-morpholin-3-yl]phenyl]phenyl]methyl]-2-[4-(3-methylimidazol-4-yl)anilino]-2-oxo-ethyl]-2-methyl-pyrazole-3-carboxamide] | 0.1 to 1
Cn1cnnc1-c1ccc(NC(=O)C(Cc2cc(-c3ccc(C#N)cc3)ccc2Cl)NC(=O)c2ccnn2C)cc1 (stereo not drawn) [Example 308, N-[1-[[2-chloro-5-(4-cyanophenyl)phenyl]methyl]-2-[4-(4-methyl-1,2,4-triazol-3-yl)anilino]-2-oxo-ethyl]-2-methyl-pyrazole-3-carboxamide] | > 1
Cc1n[nH]c(C)c1-c1ccc(NC(=O)[C@@H](NC(=O)C2(F)CC2)[C@@H]2CCCc3ccc(-c4cnn(C(F)F)c4)cc32)cc1 [Example 393, N-[(1S)-1-[(1R)-7-[1-(difluoromethyl)pyrazol-4-yl]tetralin-1-yl]-2-[4-(3,5-dimethyl-1H-pyrazol-4-yl)anilino]-2-oxo-ethyl]-1-fluoro-cyclopropanecarboxamide] | 0.1 to 1

Second part, the molecule after the results:

EC50 [µM] | Compound
0.1 to 1 | Cc1[nH]ncc1-c1ccc(NC(=O)C(Cc2cc(-c3ccc(=O)n(C(C)C)c3)ccc2Cl)NC(=O)c2ccnn2C)cc1 (stereo not drawn) [Example 89, N-[1-[[2-chloro-5-(1-isopropyl-6-oxo-3-pyridyl)phenyl]methyl]-2-[4-(5-methyl-1H-pyrazol-4-yl)anilino]-2-oxo-ethyl]-2-methyl-pyrazole-3-carboxamide]
0.1 to 1 | Cc1ncn(C)c1-c1ccc(NC(=O)[C@@H](NC(=O)c2ccnn2C)[C@@H]2CCCc3ccc(-c4ccc5c(c4)CNC5)cc32)cc1 [Example 42, N-[(1S)-2-[4-(3,5-dimethylimidazol-4-yl)anilino]-1-[(1R)-7-isoindolin-5-yltetralin-1-yl]-2-oxo-ethyl]-2-methyl-pyrazole-3-carboxamide]
0.1 to 1 | Cc1nccn1-c1ccc(NC(=O)[C@@H](NC(=O)c2ccnn2C)[C@@H]2CCCc3ccc(-c4ccnc(N5C[C@H]6C[C@@H]5CO6)c4)cc32)cc1 [Example 403, 2-methyl-N-[(1S)-2-[4-(2-methylimidazol-1-yl)anilino]-1-[(1R)-7-[2-[(1R,4R)-2-oxa-5-azabicyclo[2.2.1]heptan-5-yl]-4-pyridyl]tetralin-1-yl]-2-oxo-ethyl]pyrazole-3-carboxamide]
0.1 to 1 | Cc1nn(C)cc1-c1ccc(NC(=O)[C@@H](NC(=O)C2(F)CC2)[C@@H]2CCc3ccc(-c4ccnc(N5C[C@@H]6C[C@H]5CO6)c4)cc32)cc1 [Example 372, N-[(1S)-2-[4-(1,3-dimethylpyrazol-4-yl)anilino]-1-[(1R)-6-[2-[(1S,4S)-2-oxa-5-azabicyclo[2.2.1]heptan-5-yl]-4-pyridyl]indan-1-yl]-2-oxo-ethyl]-1-fluoro-cyclopropanecarboxamide]
< 0.1 | Cc1nocc1C(=O)N[C@@H](Cc1cc(-c2ccnc(C(O)C3CC3)c2)ccc1Cl)C(=O)Nc1ccc(-c2cncn2C)cc1 (stereo partly drawn) [Example 123, N-[(1S)-1-[[2-chloro-5-[2-[cyclopropyl(hydroxy)methyl]-4-pyridyl]phenyl]methyl]-2-[4-(3-methylimidazol-4-yl)anilino]-2-oxo-ethyl]-3-methyl-isoxazole-4-carboxamide]
0.1 to 1 | CC(C)n1cc(-c2ccc(Cl)c(C[C@H](NC(=O)OC3CC3)C(=O)Nc3ccc(-c4nncn4C)cc3)c2)ccc1=O [Example 131, cyclopropyl N-[(1S)-1-[[2-chloro-5-(1-isopropyl-6-oxo-3-pyridyl)phenyl]methyl]-2-[4-(4-methyl-1,2,4-triazol-3-yl)anilino]-2-oxo-ethyl]carbamate]
0.1 to 1 | Cc1cnn(C)c1-c1ccc(NC(=O)[C@@H](NC(=O)C2(F)CC2)[C@@H]2CCc3ccc(-c4cc(C)c(=O)n(C(C)C)c4)cc32)cc1 [Example 355, N-[(1S)-2-[4-(2,4-dimethylpyrazol-3-yl)anilino]-1-[(1R)-6-(1-isopropyl-5-methyl-6-oxo-3-pyridyl)indan-1-yl]-2-oxo-ethyl]-1-fluoro-cyclopropanecarboxamide]
0.1 to 1 | Cn1cnnc1-c1ccc(NC(=O)C(Cc2cc(-c3cccc(C(C)(C)CO)c3)ccc2Cl)NC(=O)c2ccnn2C)cc1 (stereo not drawn) [Example 164, N-[1-[[2-chloro-5-[3-(2-hydroxy-1,1-dimethyl-ethyl)phenyl]phenyl]methyl]-2-[4-(4-methyl-1,2,4-triazol-3-yl)anilino]-2-oxo-ethyl]-2-methyl-pyrazole-3-carboxamide]
< 0.1 | Cc1n[nH]c(C)c1-c1ccc(NC(=O)[C@@H](NC(=O)c2ccnn2C)[C@@H]2CCCc3ccc(-c4ccc5c(c4)CCN(C)C5)cc32)cc1 [Example 36, N-[(1S)-2-[4-(3,5-dimethyl-1H-pyrazol-4-yl)anilino]-1-[(1R)-7-(2-methyl-3,4-dihydro-1H-isoquinolin-6-yl)tetralin-1-yl]-2-oxo-ethyl]-2-methyl-pyrazole-3-carboxamide]
< 0.1 | Cc1cc(-c2ccc3c(c2)[C@H]([C@H](NC(=O)c2ccnn2C)C(=O)Nc2ccc(-c4c(C)n[nH]c4C)cc2)CC3)ccc1CN1CCOCC1 [Example 18, N-[(1S)-2-[4-(3,5-dimethyl-1H-pyrazol-4-yl)anilino]-1-[(1R)-6-[3-methyl-4-(morpholinomethyl)phenyl]indan-1-yl]-2-oxo-ethyl]-2-methyl-pyrazole-3-carboxamide]
< 0.1 | Cc1cnn(C)c1-c1ccc(NC(=O)[C@H](Cc2cc(-c3ccc(=O)n(C(C)C)c3)ccc2Cl)NC(=O)c2conc2C)cc1 [Example 118, N-[(1S)-1-[[2-chloro-5-(1-isopropyl-6-oxo-3-pyridyl)phenyl]methyl]-2-[4-(2,4-dimethylpyrazol-3-yl)anilino]-2-oxo-ethyl]-3-methyl-isoxazole-4-carboxamide]
